Test results published in patent US20070086949A1, “Method of bioimaging using nanocrystals of fluorescent dyes” (priority 2005, published 2007).

How the values were obtained:
[1] = Size of TPB and perylene nanocrystals in water dispersion; assay type: physicochemical
Description: Briefly, 200 μl of dye acetone solution (10 mM concentration ) was injected into magnetically stirring water (10 ml). The average size of nanoparticle was estimated to vary from 50 nm to 200 nm depending on the concentration of original organic solution and water temperature. A homogenous dispersion of the dye nanocrystals without any noticeable aggregation or clumps was produced. Optical properties of the prepared nanocrystals were studied using UV-Visible and fluorescence spectroscopy. UV-visible absorption spectra as well as the fluorescence spectra of the nanocrystals were acquired using a Shimadzu 3600 UV spectrometer and a Jobin-Yvon Spectramax fluorimeter. Changes in absorption spectra as well as fluorescence intensity changes (such as quenching) were studied by comparing the spectra of nanocrystals in water with that of organic solution.
For this experiment, perylene was dissolved on DMSO at 1 mM, 10 mM or 100 mM. The nanocrystals were prepared as described in Example 1 by adding to water at 4° C. or 80° C.

[2] = tested on: human cervix carcinoma cell line Hela; assay: Confocal imaging of HeLa cells incubated with dye nanocrystal water dispersion; assay type: cell-based; conditions: confocal microscopy
Description: For cellular imaging, human cervix carcinoma cell line Hela was incubated with the prepared dye dispersion. The cell culture and imaging conditions are described in detail here. Human cervical carcinoma cell line (HeLa) was maintained in Dulbecco's modified eagle medium with 10% FBS according to the manufacturers instructions (American Type Culture Collection, Manassas, Va.). To study the uptake and imaging of HPPH nanocrystals, the cells were trypsinized and resuspended in the corresponding suitable media at a concentration of around 7.5×10^5/ml. 60 μl of this suspension was transferred to each 35 mm culture plate and 2 ml of the corresponding full medium was added. These plates were then placed in an incubator at 37° C. with 5% CO2 (VWR Scientific, model 2400). After 36 hours of incubation, the cells (about 60% confluency) were rinsed with PBS, and 2 ml of the corresponding fresh media was added to the plates. Finally, 50 μl of dye nanocrystals was added and mixed properly. Plates were returned to the incubator (37° C., 5% CO2) for the required incubation period. 50 μl of dye/Tween80 micelles of same dye concentration was used as control and separate culture plates were treated and incubated for the same time period as in the case of nanocrystals. […]

c1cc2cccc3c4cccc5cccc(c(c1)c23)c54 [perylene]
size of the nanocrystals versus concentration of the dye ([1]; perylene in DMSO at 1 mM, 10 mM or 100 mM, added to water at 4° C. or 80° C.): increase with increasing concentration | size of the nanocrystals versus water temperature ([1]; water at 4° C. or 80° C.): greater at the higher water temperature | intracellular staining pattern [2]: staining the entire cytoplasm with higher dye accumulation in vescicular bodies such as lysosomes
